Here are results for twelve compounds from ChEMBL document CHEMBL1136038, “Parallel solution- and solid-phase synthesis of spiropyrrolo-pyrroles as novel neurokinin receptor ligands” (Bioorg Med Chem Lett, 2002).

This assay addresses Substance-P receptor (Homo sapiens, UniProt P25103). Briefly: Affinity for human Tachykinin receptor 1 expressed in CHO cells. It is filed as cell-based.

pKi: −log10 of the molar value.

What is called pKi is the Ki on a negative log10 scale, so that one unit is a factor of ten.

Substance-P receptor, sequence (P25103 whole entry): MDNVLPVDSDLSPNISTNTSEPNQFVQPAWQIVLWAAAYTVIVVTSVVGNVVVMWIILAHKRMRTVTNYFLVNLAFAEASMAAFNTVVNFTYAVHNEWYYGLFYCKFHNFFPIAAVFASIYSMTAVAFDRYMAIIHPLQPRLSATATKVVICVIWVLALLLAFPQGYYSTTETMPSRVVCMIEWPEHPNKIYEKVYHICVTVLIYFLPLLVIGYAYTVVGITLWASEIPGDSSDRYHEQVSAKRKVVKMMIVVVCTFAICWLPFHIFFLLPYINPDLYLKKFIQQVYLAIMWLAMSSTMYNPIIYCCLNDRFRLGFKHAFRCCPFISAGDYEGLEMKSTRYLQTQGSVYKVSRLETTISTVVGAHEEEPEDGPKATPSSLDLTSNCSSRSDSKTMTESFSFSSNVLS

`O=C1COc2ccc(S(=O)(=O)N3CCC4(CC3)C3C(=O)N(c5ccccc5)C(=O)C3CN4C(=O)c3cc(C(F)(F)F)cc(C(F)(F)F)c3)cc2N1` (configuration not stated) gave a pKi of 7.51.

Compound `CC(C)(C)C(=O)N1CCC2(CC1)C1C(=O)N(c3ccccc3)C(=O)C1CN2C(=O)c1cc(C(F)(F)F)cc(C(F)(F)F)c1` (configuration not stated) gave a negative logarithm of the Ki (pKi) of 6.52.

For the compound `O=C1C2CN(C(=O)c3sc4ccccc4c3Cl)C3(CCNCC3)C2C(=O)N1Cc1cc(C(F)(F)F)cc(C(F)(F)F)c1` (configuration not stated), the pKi is 6.30.

As for `CN1C(=O)C2CN(Cc3cccs3)C3(CCN(C(=O)c4cc(C(F)(F)F)cc(C(F)(F)F)c4)CC3)C2C1=O` (configuration not stated), the pKi is 6.29.

As for `O=C(c1cc(C(F)(F)F)cc(C(F)(F)F)c1)N1CCC2(CC1)C1C(=O)N(c3ccccc3)C(=O)C1CN2C(=O)CN1CCOCC1` (configuration not stated), the negative logarithm of the Ki (pKi) was 8.08.

`CS(=O)(=O)N1CCC2(CC1)C1C(=O)N(Cc3cc(C(F)(F)F)cc(C(F)(F)F)c3)C(=O)C1CN2C(=O)c1ccc2ccccc2c1` (configuration not stated) had a pKi of 6.58. This pKi lies 1.50 log units lower than the previous one.

Regarding `CN1C(=O)C2CN(S(=O)(=O)c3ccc4ccccc4c3)C3(CCN(C(=O)c4cc(C(F)(F)F)cc(C(F)(F)F)c4)CC3)C2C1=O` (configuration not stated), the pKi was 7.41.

In turn, `COc1ccc(OC)c(S(=O)(=O)N2CCC3(CC2)C2C(=O)N(c4ccccc4)C(=O)C2CN3C(=O)c2cc(C(F)(F)F)cc(C(F)(F)F)c2)c1` (configuration not stated) gave a pKi of 7.52. This pKi and that of the compound before are within 0.2 log units of each other.

In the case of `Cc1noc(C)c1S(=O)(=O)N1CCC2(CC1)C1C(=O)N(c3ccccc3)C(=O)C1CN2C(=O)c1cc(C(F)(F)F)cc(C(F)(F)F)c1` (configuration not stated), the pKi is 7.12.

Turning to `CS(=O)(=O)N1CC2C(=O)N(c3ccccc3)C(=O)C2C12CCN(C(=O)c1cc(C(F)(F)F)cc(C(F)(F)F)c1)CC2` (configuration not stated), the pKi is 8.29.

As for `COc1ccccc1C(=O)N1CC2C(=O)N(C)C(=O)C2C12CCN(C(=O)c1cc(C(F)(F)F)cc(C(F)(F)F)c1)CC2` (configuration not stated), the pKi was 6.10.

`O=C1C2CN(C(=O)COCc3ccccc3)C3(CCNCC3)C2C(=O)N1Cc1cc(C(F)(F)F)cc(C(F)(F)F)c1` (configuration not stated) gave a pKi of 5.64. Compared with the last compound, the pKi is 0.46 log units lower.
